The target of one data set is T1, Tyrosinase (Danio rerio) (UniProt A0A8M1PAD4).
T1 sequence (whole entry): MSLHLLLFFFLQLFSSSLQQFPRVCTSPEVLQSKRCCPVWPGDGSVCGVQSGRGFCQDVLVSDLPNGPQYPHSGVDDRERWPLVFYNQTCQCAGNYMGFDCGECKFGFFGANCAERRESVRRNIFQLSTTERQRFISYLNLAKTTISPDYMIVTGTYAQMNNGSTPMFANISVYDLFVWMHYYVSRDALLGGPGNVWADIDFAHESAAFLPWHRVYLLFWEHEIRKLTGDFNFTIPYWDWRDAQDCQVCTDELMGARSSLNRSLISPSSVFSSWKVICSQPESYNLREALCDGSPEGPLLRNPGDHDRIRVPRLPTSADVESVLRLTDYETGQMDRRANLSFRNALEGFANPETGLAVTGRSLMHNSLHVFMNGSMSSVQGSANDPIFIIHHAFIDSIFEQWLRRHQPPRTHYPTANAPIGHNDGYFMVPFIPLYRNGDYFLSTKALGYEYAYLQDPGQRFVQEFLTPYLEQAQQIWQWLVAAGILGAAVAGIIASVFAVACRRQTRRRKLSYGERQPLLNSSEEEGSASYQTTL
Description: Inhibition of zebrafish embryo tyrosinase assessed as residual activity at 50 ug/ml after 48 hrs relative to control.

The nature of a further data set: in vivo. The following applies: zebrafish.
The species entered for data set [1] is Danio rerio. Description: Toxicity in wild type zebrafish embryos assessed as eyes at 500 ug/ml treated for 96 hrs post fertilization starting from 6 hrs post fertilization by inverted microscopic analysis relative to control. In kind it is organism-based. To be noted: in vivo.
The species named for data set [2] is Danio rerio. Nature of the data set: Toxicity in wild type zebrafish embryos assessed as heart beat at 2000 ug/ml treated for 96 hrs post fertilization starting from 6 hrs post fertilization by inverted microscopic analysis relative to control. In kind it is organism-based. The following applies: in vivo.
Data set [3] is filed under the species Danio rerio. Description: Toxicity in wild type zebrafish embryos assessed as head malformation at 100 ug/ml treated for 96 hrs post fertilization starting from 6 hrs post fertilization by inverted microscopic analysis relative to control. In kind it is organism-based. To be noted: in vivo.
The species named for data set [4] is Danio rerio. Nature of the data set: Toxicity in wild type zebrafish embryos assessed as teratogenic embryo at 500 ug/ml treated for 96 hrs post fertilization starting from 6 hrs post fertilization by inverted microscopic analysis relative to control. In kind it is organism-based. The following applies: in vivo.
The species named for data set [5] is Danio rerio. Description: Toxicity in wild type zebrafish embryos assessed as unhatched embryo at 1000 ug/ml treated for 96 hrs post fertilization starting from 6 hrs post fertilization by inverted microscopic analysis relative to control. In kind it is organism-based. To be noted: in vivo.
The species named for data set [6] is Danio rerio. Description: Toxicity in wild type zebrafish embryos assessed as teratogenic embryo at 1000 ug/ml treated for 96 hrs post fertilization starting from 6 hrs post fertilization by inverted microscopic analysis relative to control. To be noted: in vivo. It is filed as organism-based.
The species entered for data set [7] is Danio rerio. Description: Toxicity in wild type zebrafish embryos assessed as otoliths at 1000 ug/ml treated for 96 hrs post fertilization starting from 6 hrs post fertilization by inverted microscopic analysis relative to control. It is filed as organism-based. To be noted: in vivo.
Data set [8] is filed under the species Danio rerio. Nature of the data set: Toxicity in wild type zebrafish embryos assessed as blood circulation at 500 ug/ml treated for 96 hrs post fertilization starting from 6 hrs post fertilization by inverted microscopic analysis relative to control. In kind it is organism-based. The following applies: in vivo.
The species named for data set [9] is Danio rerio. Nature of the data set: Toxicity in wild type zebrafish embryos assessed as unhatched embryo at 500 ug/ml treated for 96 hrs post fertilization starting from 6 hrs post fertilization by inverted microscopic analysis relative to control. The following applies: in vivo. It is filed as organism-based.
Data set [10] deals with Danio rerio. Nature of the data set: Toxicity in wild type zebrafish embryos assessed as pericardial edema at 500 ug/ml treated for 96 hrs post fertilization starting from 6 hrs post fertilization by inverted microscopic analysis relative to control. In kind it is organism-based. The following applies: in vivo.
Data set [11] is filed under the species Danio rerio. Description: Toxicity in wild type zebrafish embryos assessed as teratogenic embryo at 2500 ug/ml treated for 96 hrs post fertilization starting from 6 hrs post fertilization by inverted microscopic analysis relative to control. It is filed as organism-based. To be noted: in vivo.
For data set [12], the species on record is Danio rerio. Description: Toxicity in wild type zebrafish embryos assessed as blood circulation at 2000 ug/ml treated for 96 hrs post fertilization starting from 6 hrs post fertilization by inverted microscopic analysis relative to control. In kind it is organism-based. The following applies: in vivo.
For data set [13], the species on record is Danio rerio. Nature of the data set: Toxicity in wild type zebrafish embryos assessed as skeletal deformities at 1000 ug/ml treated for 96 hrs post fertilization starting from 6 hrs post fertilization by inverted microscopic analysis relative to control. It is filed as organism-based. To be noted: in vivo.
The species entered for data set [14] is Danio rerio. Nature of the data set: Toxicity in wild type zebrafish embryos assessed as skeletal deformities at 100 ug/ml treated for 96 hrs post fertilization starting from 6 hrs post fertilization by inverted microscopic analysis relative to control. It is filed as organism-based. The following applies: in vivo.
The species named for data set [15] is Danio rerio. Nature of the data set: Toxicity in wild type zebrafish embryos assessed as scoliosis at 2.5 ug/ml treated for 96 hrs post fertilization starting from 6 hrs post fertilization by inverted microscopic analysis relative to control. The following applies: in vivo. In kind it is organism-based.
For data set [16], the species on record is Danio rerio. Nature of the data set: Toxicity in wild type zebrafish embryos assessed as eyes at 1000 ug/ml treated for 96 hrs post fertilization starting from 6 hrs post fertilization by inverted microscopic analysis relative to control. It is filed as organism-based. The following applies: in vivo.
The test system of data set [17] is Danio rerio. Nature of the data set: Toxicity in wild type zebrafish embryos assessed as yolk edema at 1000 ug/ml treated for 96 hrs post fertilization starting from 6 hrs post fertilization by inverted microscopic analysis relative to control. In kind it is organism-based. To be noted: in vivo.
The species named for data set [18] is Danio rerio. Description: Toxicity in wild type zebrafish embryos assessed as eyes at 2500 ug/ml treated for 96 hrs post fertilization starting from 6 hrs post fertilization by inverted microscopic analysis relative to control. In kind it is organism-based. To be noted: in vivo.
Data set [19] is filed under the species Danio rerio. Nature of the data set: Toxicity in wild type zebrafish embryos assessed as blood circulation at 2500 ug/ml treated for 96 hrs post fertilization starting from 6 hrs post fertilization by inverted microscopic analysis relative to control. It is filed as organism-based. The following applies: in vivo.
The species named for data set [20] is Danio rerio. Description: Toxicity in wild type zebrafish embryos assessed as unhatched embryo at 2000 ug/ml treated for 96 hrs post fertilization starting from 6 hrs post fertilization by inverted microscopic analysis relative to control. The following applies: in vivo. In kind it is organism-based.
Data set [21] concerns Danio rerio. Nature of the data set: Toxicity in wild type zebrafish embryos assessed as yolk edema at 2000 ug/ml treated for 96 hrs post fertilization starting from 6 hrs post fertilization by inverted microscopic analysis relative to control. To be noted: in vivo. It is filed as organism-based.
Data set [22] is filed under the species Danio rerio. Nature of the data set: Toxicity in wild type zebrafish embryos assessed as growth retardation at 2000 ug/ml treated for 96 hrs post fertilization starting from 6 hrs post fertilization by inverted microscopic analysis relative to control. In kind it is organism-based. The following applies: in vivo.
The species named for data set [23] is Danio rerio. Nature of the data set: Toxicity in wild type zebrafish embryos assessed as heart beat at 1000 ug/ml treated for 96 hrs post fertilization starting from 6 hrs post fertilization by inverted microscopic analysis relative to control. The following applies: in vivo. In kind it is organism-based.

The results in this text go back to ChEMBL document CHEMBL4177616, “Potent anti-melanogenic activity and favorable toxicity profile of selected 4-phenyl hydroxycoumarins in the zebrafish model and the computational molecular modeling studies” (Bioorg Med Chem, 2017).

By mortality is commonly meant the share of the test organisms that died.

Description for in vivo: Toxicity in wild type zebrafish embryos assessed as dead embryo at 12.5 ug/ml treated for 96 hrs post fertilization starting from 6 hrs post fertilization by inverted microscopic analysis relative to control

For the molecule `O=c1cc(-c2ccccc2)c2ccc(O)cc2o1`, on Tyrosinase (Danio rerio), the Activity turned out to be 48%.

As for `Oc1ccc(O)cc1` [HYDROQUINONE], the mortality at 12.5 ug/ml in the data set “in vivo” worked out at 66.7%.

As for `O=c1cc(CO)occ1O` [KOJIC ACID], the Activity worked out at 0% in the data set filed under Danio rerio [1]; 96.67% in the data set filed under Danio rerio [2]; 0% in the data set filed under Danio rerio [3]; 86.67% in the data set listed under Danio rerio [4]; 0% in the data set filed under Danio rerio [5]; 98.33% in the data set listed under Danio rerio [6]. For the same molecule, the Activity in the data set filed under Danio rerio [7] amounted to 0%; in the data set filed under Danio rerio [8] it was 0%; in the data set filed under Danio rerio [9], 0%; in the data set with Danio rerio [10], 86.67%; in the data set filed under Danio rerio [11], 100%; in the data set filed under Danio rerio [12], 6.67%. The Activity in the data set listed under Danio rerio [13] is 0%; in the data set filed under Danio rerio [14], 0%; in the data set filed under Danio rerio [15], “Toxic”; in the data set listed under Danio rerio [16], 0%; in the data set on Danio rerio [17], 0%; in the data set filed under Danio rerio [18], 0%. Also, the Activity worked out at 10% in the data set listed under Danio rerio [19]; 0% in the data set listed under Danio rerio [20]; 0% in the data set on Danio rerio [21]; 3.33% in the data set filed under Danio rerio [22]; 83.33% in the data set filed under Danio rerio [23].
